Active and inactive are the calls of the source. The calls are words filed in the database; no cut-off is given here.
How the values were obtained:
[1] = biological target: T1, Endoplasmic reticulum aminopeptidase 1 (Homo sapiens, UniProt Q9NZ08); assay: Inhibition of human ERAP1 expressed in African green monkey COS7 cells using aminoacyl-4-methylcoumaryl-7-amide as substrate after 15 mins by spectrofluorophotometric method
BMDC [2] = assay: Inhibition of ovalbumin cross presentation to OT-I Rag1-/-mouse CD8+ T cells in C57Bl/6 JRj mouse ERAP-/- BMDC assessed as increase in IL-2 secretion from CD8+ T cells at 0.01 to 10 uM preincubated for 90 mins followed by 3 to 18 hrs incubation in presence of ovalbumin by sandwich ELISA method; assay type: functional, cell-based
[3] = biological target: T1, Endoplasmic reticulum aminopeptidase 1; assay: Inhibition of recombinant ERAP1 (unknown origin) expressed in baculovirus infected Hi5 cells using L-leucine 7-amido-4-methyl coumarin as substrate up to 30 uM by fluorescence microplate reader method
BMDC [4] = assay: Inhibition of ovalbumin cross presentation to OT-I Rag1-/-mouse CD8+ T cells in C57Bl/6 JRj mouse ERAP+/+ BMDC assessed as increase in IL-2 secretion from CD8+ T cells at 0.01 to 10 uM preincubated for 90 mins followed by 3 to 18 hrs incubation in presence of ovalbumin by sandwich ELISA method; assay type: functional, cell-based

T1 sequence (Q9NZ08 whole entry): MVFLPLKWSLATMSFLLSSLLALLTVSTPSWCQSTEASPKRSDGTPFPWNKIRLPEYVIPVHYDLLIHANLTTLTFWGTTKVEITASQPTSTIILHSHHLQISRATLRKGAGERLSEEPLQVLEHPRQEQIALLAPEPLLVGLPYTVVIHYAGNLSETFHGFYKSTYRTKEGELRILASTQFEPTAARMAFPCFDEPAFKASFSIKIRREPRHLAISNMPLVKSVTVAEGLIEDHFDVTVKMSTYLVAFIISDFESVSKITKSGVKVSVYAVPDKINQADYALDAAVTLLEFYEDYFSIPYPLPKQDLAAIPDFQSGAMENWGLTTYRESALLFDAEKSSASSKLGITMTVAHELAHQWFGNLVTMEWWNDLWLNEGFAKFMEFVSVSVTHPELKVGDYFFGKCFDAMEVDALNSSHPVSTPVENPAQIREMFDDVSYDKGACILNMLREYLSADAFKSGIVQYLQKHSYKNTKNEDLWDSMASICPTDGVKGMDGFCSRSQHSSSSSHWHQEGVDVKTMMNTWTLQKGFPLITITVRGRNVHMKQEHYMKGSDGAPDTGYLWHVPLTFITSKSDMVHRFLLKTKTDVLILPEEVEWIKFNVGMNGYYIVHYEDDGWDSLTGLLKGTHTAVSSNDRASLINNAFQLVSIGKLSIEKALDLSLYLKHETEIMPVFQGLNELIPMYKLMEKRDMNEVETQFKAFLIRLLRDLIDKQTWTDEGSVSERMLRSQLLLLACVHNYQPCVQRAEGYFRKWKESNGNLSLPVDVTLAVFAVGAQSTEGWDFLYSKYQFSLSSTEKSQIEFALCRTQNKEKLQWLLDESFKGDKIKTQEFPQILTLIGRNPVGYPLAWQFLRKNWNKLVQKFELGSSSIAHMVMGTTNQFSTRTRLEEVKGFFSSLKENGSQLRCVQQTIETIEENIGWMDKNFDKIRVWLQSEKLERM

Row | SMILES | IC50 [1] | inhibition (BMDC [2]) | inhibition [3] | inhibition (BMDC [4])
1 | CC(C)C[C@H](NC(=O)[C@@H](O)[C@H](N)Cc1ccccc1)C(=O)O [UBENIMEX] | 50 to 100 µM | – | – | –
2 | O=C(O)c1ccccc1S | – | inactive | inactive | inactive

Reference: ChEMBL document CHEMBL4425167, “Screening Identifies Thimerosal as a Selective Inhibitor of Endoplasmic Reticulum Aminopeptidase 1” (ACS Med Chem Lett, 2016)
